Data from US20180092866A1, “SUBSTITUTED N-([1,1'-BIPHENYL]-3-YL)-[1,1'-BIPHENYL]-3-CARBOXAMIDE ANALOGS AS INHIBITORS FOR BETA-CATENIN/B-CELL LYMPHOMA 9 INTERACTIONS” (University of Utah Research Foundation, priority 2015, published 2018).
Counter-ions that a name gives are not always drawn.

Target: T1, β-catenin/BCL9 protein-protein interactions (Homo sapiens, UniProt P35222)
T1 construct: C-terminally His6-tagged wild-type or mutant β-catenin (residues 138-686) proteins; made in house; host or cells: E. coli BL21 DE3
T1 sequence (P35222 138-686): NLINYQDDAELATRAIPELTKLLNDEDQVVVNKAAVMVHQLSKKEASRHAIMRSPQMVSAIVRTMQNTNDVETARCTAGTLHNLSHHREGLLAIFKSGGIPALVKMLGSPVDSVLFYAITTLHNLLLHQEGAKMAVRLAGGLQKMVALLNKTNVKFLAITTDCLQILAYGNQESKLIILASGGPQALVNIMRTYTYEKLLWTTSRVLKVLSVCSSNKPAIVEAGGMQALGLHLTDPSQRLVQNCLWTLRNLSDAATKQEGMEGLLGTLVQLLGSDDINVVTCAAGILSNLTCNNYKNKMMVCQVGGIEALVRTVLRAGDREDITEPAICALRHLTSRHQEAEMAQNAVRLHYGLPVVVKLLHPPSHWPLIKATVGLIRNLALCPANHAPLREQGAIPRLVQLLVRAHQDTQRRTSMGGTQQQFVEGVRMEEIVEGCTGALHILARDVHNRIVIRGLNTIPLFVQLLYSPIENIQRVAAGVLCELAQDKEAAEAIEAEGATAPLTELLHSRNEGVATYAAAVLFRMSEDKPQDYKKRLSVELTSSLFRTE
Experiment: AlphaScreen competitive inhibition assay, wild-type β-catenin/BCL9
Assay type: binding
Conditions: wild-type β-catenin (residues 138-686)/biotinylated BCL9 26-mer; Ki derived from IC50; mean ± SD
Description: The purity of the wild-type and mutant β-catenin proteins was all greater than 95% as determined by the SDS-PAGE gel analysis. Both the wild-type and mutant β-catenin proteins are stable under the testing conditions. Native non-denaturing gel electrophoresis was performed to confirm the homogeneity of the purified proteins. Experiments were performed in white opaque 384-well plates from PerkinElmer, and the samples were read on a Synergy 2 plate reader (Biotek) with a sensitivity setting of 200 using AlphaScreen protocol with excitation at 680 nm and emission at 570 nm. All dilutions were made in 1×assay buffer containing 25 mM HEPES (pH=7.0), 100 mM NaCl, 0.01% Triton X-100, and 0.1% BSA. In the AlphaScreen competitive inhibition assay, 40 nM of C-terminally His6-tagged wild-type or mutant β-catenin (residues 138-686) proteins was incubated with 5 nM of N-terminal biotinylated human BCL9 26-mer (residues 350-375) for 30 min at 4° C., and then different concentrations of the tested inhibitors in the assay buffer were added to make a final volume of 20 μL. The mixture was incubated at 4° C. for 2 h. The donor and acceptor beads were added to a final concentration of 10 μg/mL in 25 μL of assay buffer. The mixture was incubated at 4° C. for 1 h. The IC50 value was determined by nonlinear least-square analysis of GraphPad Prism 5.0. […] The Ki values were derived from the IC50 values by a reported method (Nikolovska-Coleska et al. (2004) Anal. Biochem. […]: 261-273). Experiments were performed in triplicate and carried out in the presence of 1% DMSO.

| Compound | Ki |
| --- | --- |
| O=C(Nc1ccc(OC2CNC2)c(-c2ccc(F)cc2)c1)c1ccc(OC2CNC2)c(-c2ccc(F)c(F)c2)c1 [Compound 22, 3-((5-(6-(azetidin-1-ium-3-yloxy)-3′,4′-difluoro-[1,1′-biphenyl]-3-ylcarboxamido)-4′-fluoro-[1,1′-biphenyl]-2-yl)oxy)azetidin-1-ium chloride] | 17 ± 1.99 µM |
| Cc1cc(C(=O)Nc2ccc(O[C@H]3CCNC3)c(-c3ccc(F)cc3)c2)ccc1O[C@H]1CCNC1 [Compound 24, (S)-3-((4′-fluoro-5-(3-methyl-4-((S)-pyrrolidin-1-ium-3-yloxy)benzamido)-[1,1′-biphenyl]-2-yl)oxy) pyrrolidin-1-ium chloride] | 201 ± 9.29 µM |
| O=C(Nc1ccc(O[C@H]2CCNC2)c(-c2ccc(F)cc2)c1)c1ccc(O[C@H]2CCNC2)c(-c2ccc3ccccc3c2)c1 [Compound 25, (S)-3-((4′-fluoro-5-(3-(naphthalen-2-yl)-4-((S)-pyrrolidin-1-ium-3-yloxy)benzamido)-[1,1′-biphenyl]-2-yl)oxy) pyrrolidin-1-ium chloride] | 8.45 ± 2.65 µM |
| O=C(Nc1ccc(O[C@@H]2CCNC2)c(-c2ccc(F)cc2)c1)c1ccc(O[C@@H]2CCNC2)c(-c2ccc(F)c(F)c2)c1 [Compound 26, (R)-3-((3′,4′-difluoro-5-((4′-fluoro-6-(((R)-pyrrolidin-1-ium-3-yl)oxy)-[1,1′-biphenyl]-3-yl)carbamoyl)-[1,1′-biphenyl]-2-yl)oxy) pyrrolidin-1-ium chloride] | 4.08 ± 0.355 µM |
| O=C(Nc1ccc(O[C@H]2CCNC2)c(-c2ccc(F)cc2)c1)c1ccc(O[C@@H]2CCNC2)c(-c2ccc(F)c(F)c2)c1 [Compound 27, (R)-3-((3′,4′-difluoro-5-((4′-fluoro-6-(((S)-pyrrolidin-1-ium-3-yl)oxy)-[1,1′-biphenyl]-3-yl)carbamoyl)-[1,1′-biphenyl]-2-yl)oxy) pyrrolidin-1-ium chloride] | 5.6 ± 0.514 µM |
| O=C(Nc1ccc(O[C@@H]2CCNC2)c(-c2ccc(F)cc2)c1)c1ccc(O[C@H]2CCNC2)c(-c2ccc(F)c(F)c2)c1 [Compound 28, (S)-3-((3′,4′-difluoro-5-((4′-fluoro-6-(((R)-pyrrolidin-1-ium-3-yl)oxy)-[1,1′-biphenyl]-3-yl)carbamoyl)-[1,1′-biphenyl]-2-yl)oxy) pyrrolidin-1-ium chloride] | 3.41 ± 0.354 µM |
| COC(=O)c1ccc(OCCNC(=O)OC(C)(C)C)c(Br)c1 [Compound 30, Methyl-3-bromo-4-(2-((tert-butoxycarbonyl)amino)ethoxy) benzoate] | 156 ± 3.96 µM |
| COC(=O)c1ccc(OCCNC(=O)OC(C)(C)C)c(-c2ccc(F)cc2)c1 [Compound 31, Methyl-6-(2-((tert-butoxycarbonyl)amino)ethoxy)-4′-fluoro-[1,1′-biphenyl]-3-carboxylate] | 180 ± 4.84 µM |
| O=C(Nc1cnc(O[C@H]2CCNC2)c(-c2ccc(F)cc2)c1)c1ccc(O[C@H]2CCNC2)c(-c2ccc(F)c(F)c2)c1 [Compound 84a, 3′,4′-Difluoro-N-(5-(4-fluorophenyl)-6-((S)-pyrrolidin-3-yloxy)pyridin-3-yl)-6-((S)-pyrrolidin-3-yloxy)-[1,1′-biphenyl]-3-carboxamide dihydrochloride] | 78.6 ± 10.4 µM |
| O=C(Nc1ccc(O[C@H]2CCNC2)c(-c2ccc(F)cc2)c1)c1cnc(O[C@H]2CCNC2)c(-c2ccc(F)c(F)c2)c1 [Compound 84b, 5-(3,4-difluorophenyl)-N-(4′-fluoro-6-((S)-pyrrolidin-3-yloxy)-[1,1′-biphenyl]-3-yl)-6-((S)-pyrrolidin-3-yloxy)nicomide dihydrochloride] | 84.2 ± 14.8 µM |
| O=C(Nc1cnc(O[C@H]2CCNC2)c(-c2ccc(F)cc2)c1)c1cnc(O[C@H]2CCNC2)c(-c2ccc(F)c(F)c2)c1 [Compound 84c, 5-(3,4-difluorophenyl)-N-(5-(4-fluorophenyl)-6-((S)-pyrrolidin-3-yloxy)pyridin-3-yl)-6-((S)-pyrrolidin-3-yloxy)nicotinamide dihydrochloride] | 68.6 ± 14.9 µM |
| Cc1ccccc1-c1cc(NC(=O)c2ccc(O[C@H]3CCNC3)c(-c3ccc(F)c(F)c3)c2)ccc1O[C@H]1CCNC1 [Compound 91a, 3′,4′-Difluoro-N-(2′-methyl-6-((S)-pyrrolidin-3-yloxy)-[1,1′-biphenyl]-3-yl)-6-((S)-pyrrolidin-3-yloxy)-[1,1′-biphenyl]-3-carboxamide dihydrochloride] | 36 ± 7.21 µM |
| Cc1cccc(-c2cc(NC(=O)c3ccc(O[C@H]4CCNC4)c(-c4ccc(F)c(F)c4)c3)ccc2O[C@H]2CCNC2)c1 [Compound 91b, 3′,4′-Difluoro-N-(3′-methyl-6-((S)-pyrrolidin-3-yloxy)-[1,1′-biphenyl]-3-yl)-6-((S)-pyrrolidin-3-yloxy)-[1,1′-biphenyl]-3-carboxamide dihydrochloride] | 40.8 ± 5.94 µM |
| Cc1ccc(-c2cc(NC(=O)c3ccc(O[C@H]4CCNC4)c(-c4ccc(F)c(F)c4)c3)ccc2O[C@H]2CCNC2)cc1 [Compound 91c, 3′,4′-Difluoro-N-(4′-methyl-6-((S)-pyrrolidin-3-yloxy)-[1,1′-biphenyl]-3-yl)-6-((S)-pyrrolidin-3-yloxy)-[1,1′-biphenyl]-3-carboxamide dihydrochloride] | 41.4 ± 9.16 µM |
| O=C(Nc1ccc(O[C@H]2CCNC2)c(-c2ccccc2C(F)(F)F)c1)c1ccc(O[C@H]2CCNC2)c(-c2ccc(F)c(F)c2)c1 [Compound 91d, 3′,4′-Difluoro-6-((S)-pyrrolidin-3-yloxy)-N-(6-((S)-pyrrolidin-3-yloxy)-2′-(trifluoromethyl)-[1,1′-biphenyl]-3-yl)-[1,1′-biphenyl]-3-carboxamide dihydrochloride] | 54.8 ± 6.24 µM |
| N#Cc1cccc(-c2cc(NC(=O)c3ccc(O[C@H]4CCNC4)c(-c4ccc(F)c(F)c4)c3)ccc2O[C@H]2CCNC2)c1 [Compound 91e, N-(3′-cyano-6-((S)-pyrrolidin-3-yloxy)-[1,1′-biphenyl]-3-yl)-3′,4′-difluoro-6-((S)-pyrrolidin-3-yloxy)-[1,1′-biphenyl]-3-carboxamide dihydrochloride] | 25.9 ± 5.58 µM |
| N#Cc1ccc(-c2cc(NC(=O)c3ccc(O[C@H]4CCNC4)c(-c4ccc(F)c(F)c4)c3)ccc2O[C@H]2CCNC2)cc1 [Compound 91f, N-(4′-cyano-6-((S)-pyrrolidin-3-yloxy)-[1,1′-biphenyl]-3-yl)-3′,4′-difluoro-6-((S)-pyrrolidin-3-yloxy)-[1,1′-biphenyl]-3-carboxamide dihydrochloride] | 29.5 ± 5.77 µM |
| NC(=O)c1cccc(-c2cc(NC(=O)c3ccc(O[C@H]4CCNC4)c(-c4ccc(F)c(F)c4)c3)ccc2O[C@H]2CCNC2)c1 [Compound 91g, N-(3′-carbamoyl-6-((S)-pyrrolidin-3-yloxy)-[1,1′-biphenyl]-3-yl)-3′,4′-difluoro-6-((S)-pyrrolidin-3-yloxy)-[1,1′-biphenyl]-3-carboxamide dihydrochloride] | 162 ± 8.69 µM |
| NC(=O)c1ccc(-c2cc(NC(=O)c3ccc(O[C@H]4CCNC4)c(-c4ccc(F)c(F)c4)c3)ccc2O[C@H]2CCNC2)cc1 [Compound 91h, N-(4′-carbamoyl-6-((S)-pyrrolidin-3-yloxy)-[1,1′-biphenyl]-3-yl)-3′,4′-difluoro-6-((S)-pyrrolidin-3-yloxy)-[1,1′-biphenyl]-3-carboxamide dihydrochloride] | 51.7 ± 6.15 µM |
| NS(=O)(=O)c1ccc(-c2cc(NC(=O)c3ccc(O[C@H]4CCNC4)c(-c4ccc(F)c(F)c4)c3)ccc2O[C@H]2CCNC2)cc1 [Compound 91i, 3′,4′-Difluoro-6-((S)-pyrrolidin-3-yloxy)-N-(6-((S)-pyrrolidin-3-yloxy)-4′-sulfamoyl-[1,1′-biphenyl]-3-yl)-[1,1′-biphenyl]-3-carboxamide dihydrochloride] | 11.1 ± 1.16 µM |
| Cc1cc(F)ccc1-c1cc(NC(=O)c2ccc(O[C@H]3CCNC3)c(-c3ccc(F)c(F)c3)c2)ccc1O[C@H]1CCNC1 [Compound 91j, 3′,4′-Difluoro-N-(4′-fluoro-2′-methyl-6-((S)-pyrrolidin-3-yloxy)-[1,1′-biphenyl]-3-yl)-6-((S)-pyrrolidin-3-yloxy)-[1,1′-biphenyl]-3-carboxamide dihydrochloride] | 27.3 ± 4.83 µM |
